Two compounds from patent US10801035B2, “Plants having increased tolerance to herbicides” (BASF SE, priority 2011, dated 2020) can be followed below.

Holding throughout (assay type): biochemical
Experiment [1] addresses T1, Arabidopsis HPPD (SEQ ID: 53) (Arabidopsis thaliana, UniProt P93836).
T1 construct: His6 (N); made in house; host or cells: E. coli BL21 (DE3)
T1 sequence (P93836 1-445): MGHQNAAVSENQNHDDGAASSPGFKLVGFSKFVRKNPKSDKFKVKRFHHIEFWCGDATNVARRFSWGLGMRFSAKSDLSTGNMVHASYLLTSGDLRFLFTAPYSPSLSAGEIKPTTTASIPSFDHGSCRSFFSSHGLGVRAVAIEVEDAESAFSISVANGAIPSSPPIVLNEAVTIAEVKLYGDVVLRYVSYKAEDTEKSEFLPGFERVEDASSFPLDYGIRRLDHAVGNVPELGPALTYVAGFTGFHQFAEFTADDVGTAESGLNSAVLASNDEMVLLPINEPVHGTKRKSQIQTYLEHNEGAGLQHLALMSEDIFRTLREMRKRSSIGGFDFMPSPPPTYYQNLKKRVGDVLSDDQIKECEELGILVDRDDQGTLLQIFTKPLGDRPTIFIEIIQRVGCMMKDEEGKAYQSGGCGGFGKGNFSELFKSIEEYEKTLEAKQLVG
Description: HPPD activity assay, wildtype Arabidopsis HPPD. Particulars: for Normalized tolerance index (TI): Arabidopsis HPPD Wildtype, normalized on wildtype (Table 11); for Ki / TI (tolerance index): Arabidopsis HPPD; for Ki: Cheng-Prusoff from IC50, read-out: Ki (dissociation constant); for TI (tolerance index): not normalized. The method, then: (§1) HPPD produces homogentisic acid and CO2 from 4-hydroxyphenylpyruvate (4-HPP) and O2. The activity assay for HPPD is based on the analysis of homogentisic acid by reversed phase HPLC.
(§2) The assay mixture can contain 150 mM potassium phosphate buffer pH 7.0, 50 mM L-ascorbic acid, 1 μM FeSO4 and 7 μg of purified enzyme in a total volume of 1 ml. Inhibitors are dissolved in DMSO (dimethylsulfoxide) to a concentration of 20 mM or 0.5 mM, respectively. From this stock solution serial five-fold dilutions are prepared in DMSO, which are used in the assay. The respective inhibitor solution accounts for 1% of the assay volume. Thus, final inhibitor concentrations range from 200 μM to 2.5 nM or from 5 μM to 63 pM, respectively. After a preincubation of 30 min the reaction is started by adding 4-HPP to a final concentration of 0.1 mM. The reaction is allowed to proceed for 120 min at room temperature. The reaction is stopped by addition of 100 μl of 4.5 M phosphoric acid.
Activities are normalized by setting the uninhibited enzyme activity to 100%. […] values are calculated using non-linear regression.
The assay mixture can contain 150 mM potassium phosphate buffer pH 7.0, 50 mM L-ascorbic acid, 100 μM Catalase (Sigma-Aldrich), 1 μM FeSO4 and 0.2 units of purified HPPD enzyme in a total volume of 505 μl. 1 unit is defined as the amount of enzyme that is required to produce 1 nmol of HGA per minute at 20° C.
Inhibitors are dissolved in DMSO (dimethylsulfoxide) to a concentration of 0.5 mM. From this stock solution serial five-fold dilutions are prepared in DMSO, which are used in the assay. The respective inhibitor solution accounts for 1% of the assay volume. Thus, final inhibitor concentrations range from 5 μM to 320 pM, respectively. Activities are normalized by setting the uninhibited enzyme activity to 100%. IC50 values are calculated using non-linear regression.
Using methods which are described in the above examples or well known in the art, purified, recombinant wildtype HPPD enzymes are characterized with respect to their kinetic properties and sensitivity towards HPPD inhibiting herbicides. Apparent michaelis constants (Km) and maximal reaction velocities (Vmax) are calculated by non-linear regression with the software GraphPad Prism 5 (GraphPad Software, La Jolla, USA) using a substrate inhibition model. Apparent kcat values are calculated from Vmax assuming 100% purity of the enzyme preparation. Weighted means (by standard error) of Km and […] values are calculated from at least three independent experiments. The Cheng-Prusoff equation for competitive inhibition (Cheng, Y. C.; Prusoff, W. H. Biochem Pharmacol 1973, 22, 3099-3108) is used to calculate dissociation constants (Ki).
Field performance of the HPPD enzyme, which is used as a herbicide tolerance trait may depend not only on its lack of sensitivity towards HPPD inhibiting herbicides but also on its activity. To assess the potential performance of a herbicide tolerance trait a tolerance index (TI) is calculated using the following formula: […]
Easy comparison and ranking of each trait is enabled by normalizing every tolerance index on Hordeum HPPD.

For experiment [2], the system named is Avena HPPD. Description: HPPD activity assay, Avena HPPD. Particulars: normalized on Hordeum HPPD. The procedure: as §1
(§3) The assay mixture can contain 150 mM potassium phosphate buffer pH 7.0, 50 mM L-ascorbic acid, 1 μM FeSO4 and 7 μg of purified enzyme in a total volume of 1 ml. Inhibitors are dissolved in DMSO (dimethylsulfoxide) to a concentration of 20 mM or 0.5 mM, respectively. From this stock solution serial five-fold dilutions are prepared in DMSO, which are used in the assay. The respective inhibitor solution accounts for 1% of the assay volume. […]
(§4) Activities are normalized by setting the uninhibited enzyme activity to 100%. […] values are calculated using non-linear regression. […]
(§5) Inhibitors are dissolved in DMSO (dimethylsulfoxide) to a concentration of 0.5 mM. […] IC50 values are calculated using non-linear regression.
(§6) Using methods which are described in the above examples or well known in the art, purified, recombinant wildtype HPPD enzymes are characterized with respect to their kinetic properties and sensitivity towards HPPD inhibiting herbicides. Apparent michaelis constants (Km) and maximal reaction velocities (Vmax) are calculated by non-linear regression with the software GraphPad Prism 5 (GraphPad Software, La Jolla, USA) using a substrate inhibition model. […]

Experiment [3] has as its system Kordia HPPD. Description: HPPD activity assay, Kordia HPPD. To be noted: normalized on Hordeum HPPD. The method, then:
as §1, §3, §4, §5, §6

The subject of experiment [4] is Lolium HPPD. Description: HPPD activity assay, Lolium HPPD. To be noted: normalized on Hordeum HPPD. The procedure:
as §1, §3, §4, §5, §6

Experiment [5] concerns the target T2, Hordeum HPPD variant G407C (Hordeum vulgare, UniProt O48604, A164G/G407C/R146V/R147D/R148G).
T2 construct: His6; made in house; host or cells: E. coli BL21 (DE3)
Description: HPPD activity assay, Hordeum HPPD mutant G407C. Particulars: normalized on wildtype. The method, then: as §1
as §2, with “The reaction is allowed to proceed for 120 min at room temperature. The reaction is stopped by addition of 100 μl of 4.5 M phosphoric acid.” left out
as §5
(§7) Purified, mutant HPPD enzymes are obtained by the methods described above. […] Apparent michaelis constants (Km) and maximal reaction velocities (Vmax) are calculated by non-linear regression with the software GraphPad Prism 5 (GraphPad Software, La Jolla, USA) using a substrate inhibition model. […] Weighted means (by standard error) of Km and […] values are calculated from at least three independent experiments. […]

Experiment [6] deals with T3, Hordeum HPPD variant L334E (Hordeum vulgare, UniProt O48604, A164G/L334E/R146V/R147D/R148G).
T3 construct: His6; made in house; host or cells: E. coli BL21 (DE3)
Description: HPPD activity assay, Hordeum HPPD mutant L334E. Particulars: normalized on wildtype. The method, then: as §1
as §2, with “The reaction is allowed to proceed for 120 min at room temperature. The reaction is stopped by addition of 100 μl of 4.5 M phosphoric acid.” left out
as §5, §7

Experiment [7] concerns the target T4, Hordeum HPPD variant L353M, P321R, V212I (Hordeum vulgare, UniProt O48604, L353M/P321R/V212I).
T4 construct: His6; made in house; host or cells: E. coli BL21 (DE3)
Description: HPPD activity assay, Hordeum HPPD mutant L353M, P321R, V212I. To be noted: normalized on wildtype. The method, then: as §1
as §2, with “The reaction is allowed to proceed for 120 min at room temperature. The reaction is stopped by addition of 100 μl of 4.5 M phosphoric acid.” left out
as §5, §7

The target in experiment [8] is T5, Hordeum HPPD variant L320Q (Hordeum vulgare, UniProt O48604, A164G/L320Q/R146V/R147D/R148G).
T5 construct: His6; made in house; host or cells: E. coli BL21 (DE3)
Description: HPPD activity assay, Hordeum HPPD mutant L320Q. To be noted: normalized on wildtype. The method, then: as §1
as §2, with “The reaction is allowed to proceed for 120 min at room temperature. The reaction is stopped by addition of 100 μl of 4.5 M phosphoric acid.” left out
as §5, §7

For experiment [9], the target named is T6, Arabidopsis HPPD variant M335H (Arabidopsis thaliana, UniProt P93836, M335H).
T6 construct: His6 (N); made in house; host or cells: E. coli BL21 (DE3)
Description: HPPD activity assay, Arabidopsis HPPD mutant M335H. Particulars: normalized on wildtype. The method, then: as §1
as §2, with “The reaction is allowed to proceed for 120 min at room temperature. The reaction is stopped by addition of 100 μl of 4.5 M phosphoric acid.” left out
as §5, §7

Structures are written as SMILES.

T5 sequence (O48604 whole entry R146V/R147D/R148G/A164G/L320Q): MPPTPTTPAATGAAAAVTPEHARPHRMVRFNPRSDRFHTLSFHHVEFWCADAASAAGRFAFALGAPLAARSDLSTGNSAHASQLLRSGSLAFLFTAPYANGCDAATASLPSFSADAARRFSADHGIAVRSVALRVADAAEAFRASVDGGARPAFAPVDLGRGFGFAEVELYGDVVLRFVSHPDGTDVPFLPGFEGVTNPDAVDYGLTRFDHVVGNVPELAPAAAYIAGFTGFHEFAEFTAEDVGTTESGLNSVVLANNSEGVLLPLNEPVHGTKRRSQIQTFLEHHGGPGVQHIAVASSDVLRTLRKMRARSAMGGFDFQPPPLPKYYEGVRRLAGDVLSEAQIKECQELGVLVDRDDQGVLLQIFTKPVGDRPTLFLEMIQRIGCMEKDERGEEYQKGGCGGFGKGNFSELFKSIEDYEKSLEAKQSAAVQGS
T2 sequence (O48604 whole entry R146V/R147D/R148G/A164G/G407C): as the sequence (O48604 whole entry R146V/R147D/R148G/A164G/L320Q) above, with Q320L, G407C counted along it
T4 sequence (O48604 whole entry R146V/R147D/R148G/A164G/V212I/P321R/L353M): as the sequence (O48604 whole entry R146V/R147D/R148G/A164G/L320Q) above, with V212I, Q320L, P321R, L353M counted along it
T3 sequence (O48604 whole entry R146V/R147D/R148G/A164G/L334E): as the sequence (O48604 whole entry R146V/R147D/R148G/A164G/L320Q) above, with Q320L, L334E counted along it
T6 sequence (P93836 whole entry M335H): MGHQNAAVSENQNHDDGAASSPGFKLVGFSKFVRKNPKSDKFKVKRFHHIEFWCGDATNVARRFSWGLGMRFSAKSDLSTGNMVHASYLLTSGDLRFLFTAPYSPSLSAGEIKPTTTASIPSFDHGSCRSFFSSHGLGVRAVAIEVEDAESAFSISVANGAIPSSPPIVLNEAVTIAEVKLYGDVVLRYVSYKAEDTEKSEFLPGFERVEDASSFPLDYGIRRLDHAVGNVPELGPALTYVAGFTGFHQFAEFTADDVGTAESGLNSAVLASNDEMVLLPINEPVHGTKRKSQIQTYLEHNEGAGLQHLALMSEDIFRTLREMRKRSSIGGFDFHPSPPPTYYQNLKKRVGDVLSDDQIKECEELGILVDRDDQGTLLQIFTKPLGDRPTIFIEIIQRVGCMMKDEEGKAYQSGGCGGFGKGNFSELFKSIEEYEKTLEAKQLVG

On to `O=S1(=O)C(c2c(Cl)cc(Cl)nc2Cl)=C(O)c2ncccc2N1CC(F)F` [Inhibitor 2, 1-(2,2-difluoroethyl)-2,2-dioxo-3-(2,4,6-trichloro-3-pyridyl)pyrido[3,2-c]thiazin-4-ol], for which the “Normalized tolerance index (TI)” value in [1] came out at 1; in [2], 5.2; in [3], 12; in [4], 5.6; in experiment [5], 3.2; in [6], 2.2. The figures for the “Normalized tolerance index (TI)” value in experiment [7], in experiment [8] and in [9] were 3, 1.8 and 0.2, respectively. Besides, the inhibition constant (Ki) in experiment [1] was found to be 15 nM. The “TI (tolerance index)” value in experiment [1] stood at 1.5E−2.
Turning to `CC1=NOC(c2c(Cl)ccc(C3=C(O)c4ncccc4N(CC(F)F)S3(=O)=O)c2Cl)C1` (stereo not drawn) [Inhibitor 1, 3-[2,4-dichloro-3-(3-methyl-4,5-dihydroisoxazol-5-yl)phenyl]-1-(2,2-difluoroethyl)-2,2-dioxo-pyrido[3,2-c]thiazin-4-ol], the “Normalized tolerance index (TI)” value amounted to 1 in experiment [1]; 7.4 in experiment [2]; 7.5 in [3]; 6.5 in experiment [4]; 1.6 in experiment [5]; 3.8 in experiment [6]. For the same compound, the “Normalized tolerance index (TI)” value in experiment [7] is recorded as 2.3; in experiment [8], 3.4. Also, the inhibitory constant (Ki) in experiment [1] came to 3.3 nM. Moreover, the “TI (tolerance index)” value in experiment [1] is on record as 3.3E−3.

In general, Ki refers to the dissociation constant of the complex between target and ligand, obtained from inhibition or displacement.
